Measured values reported in patent US11384066B1, “Heterocyclic compounds useful as aurora a selective inhibitors” (Jacobio Pharmaceuticals Co., Ltd., priority 2020, dated 2022).

Key:
Aurora B = Aurora B (Homo sapiens (Human), UniProt Q96GD4); experiment: Aurora B kinase assay (mobility shift assay); type: biochemical; settings: ratio of Aurora B IC50 to Aurora A IC50
Experimental: (§1) Example A: Evaluation of Aurora a and Aurora B Inhibitory Effect—Kinase Assay
(§2) The inhibitory activities of a test compound against Aurora A and Aurora B were measured according to the following method.
(§3) The IC50 value of Aurora A and Aurora B kinase was performed by Sundia MediTech Co. Ltd. using Mobility shift assay.
(§4) • (1) Prepare a 1× kinase buffer [50 mM 4-(2-hydroxyethyl)-1-piperazineethanesulfonic acid (HEPES), PH 7.5, 0.01% Brij-35, 10 mM MgCl2, 2 mM dithiothreitol (DTT)]. • (2) Prepare compound:
(§5) The testing compound was dissolved with DMSO. The testing compound was diluted up to 100× final concentration in a 384-well plate. Transfer 250 nL of the compound dilution to a 384-well assay plate using Echo 550. 100% DMSO of 250 nL was added to the negative control well and the positive control well. • (3) Prepare a 2.5× enzyme solution using the above 1× kinase buffer. • (4) Add 10 μL of the 2.5× enzyme solution to the compound well and the positive control well of the 384-well assay plate. Add 10 μL of the 1× kinase buffer to the negative control well. • (5) The 384-well plate was centrifuged at 1000 rpm for 30 seconds and incubated at room temperature for 10 min. • (6) A mixture of ATP and Kinase substrate 21 with a final concentration of 25/15× was prepared by the 1× kinase buffer. • (7) Add 15 μL of the mixture of 25/15×ATP and kinase substrate solution 21 to start reaction. • (8) The 384-well plate was centrifuged at 1000 rpm for 30 seconds and incubated at room temperature. • (9) 30 μL of the stop and detection buffer was added to stop the kinase reaction and centrifuged at 1000 rpm for 30 seconds. • (10) Collect data on Caliper EZ ReaderII. Data Analysis:
(§6) Conversion %_sample is conversion rate data of samples. Conversion %_min is mean value of negative control (conversion rate data without enzyme activation). Conversion %_max is mean positive control (conversion rate data without compound).
(§7) The log of concentration is on the X axis, and the percentage inhibition is on the Y axis. Fit the Quantitative effect curves with log (inhibitor) vs. response—Variable slope in GraphPad Prism5 obtain IC50 values. Equation used is Y=Bottom+(Top−Bottom)/(1+10^((Log IC50−X)*HillSlope)).

Aurora A = Aurora A (Homo sapiens (Human), UniProt O14965); experiment: Aurora A kinase assay (mobility shift assay); type: biochemical
Experimental: as §1, §2, §3, §4, §5, §6, §7

Chain of Aurora B (Q96GD4 whole entry): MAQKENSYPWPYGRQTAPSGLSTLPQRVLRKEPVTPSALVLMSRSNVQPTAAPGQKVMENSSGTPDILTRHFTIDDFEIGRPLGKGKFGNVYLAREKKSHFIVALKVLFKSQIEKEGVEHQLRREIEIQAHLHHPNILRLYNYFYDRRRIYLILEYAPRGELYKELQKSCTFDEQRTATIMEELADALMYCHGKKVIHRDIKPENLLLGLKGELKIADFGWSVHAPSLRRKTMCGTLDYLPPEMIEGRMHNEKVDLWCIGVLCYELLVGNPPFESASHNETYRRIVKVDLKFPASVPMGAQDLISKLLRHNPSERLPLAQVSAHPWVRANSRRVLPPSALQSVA
Chain of Aurora A (O14965 whole entry): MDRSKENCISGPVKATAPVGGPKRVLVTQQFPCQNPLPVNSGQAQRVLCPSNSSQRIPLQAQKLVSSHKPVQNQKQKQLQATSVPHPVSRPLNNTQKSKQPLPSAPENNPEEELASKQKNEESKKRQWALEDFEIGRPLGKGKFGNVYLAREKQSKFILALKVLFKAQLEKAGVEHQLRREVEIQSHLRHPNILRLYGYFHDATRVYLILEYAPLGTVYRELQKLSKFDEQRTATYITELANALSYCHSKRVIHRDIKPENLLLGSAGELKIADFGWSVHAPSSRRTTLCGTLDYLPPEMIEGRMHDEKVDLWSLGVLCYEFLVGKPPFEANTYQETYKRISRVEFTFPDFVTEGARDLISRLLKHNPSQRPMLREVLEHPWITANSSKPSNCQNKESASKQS

Row | IC50 Ratio Aur B/Aur A (Aurora B) | IC50 (Aurora A) [nM] | Structure (SMILES)
1 | 3835 | 0.88 | Cc1cc(Nc2cc(C)c(F)c(CC3(C(=O)O)CCN(Cc4c(F)ccc(Cl)c4F)CC3)n2)n[nH]1 [Example 55, 1-(3-chloro-2,6-difluoro-benzyl)-4-((3-fluoro-4-methyl-6-((5-methyl-1H-pyrazol-3-yl)-amino)pyridin-2-yl)methyl) piperidine-4-carboxylic acid]
2 | 1353 | 0.77 | Cc1cc(Nc2cc(S(C)(=O)=O)c(F)c(C[C@@]3(C(=O)O)CCN(Cc4cccc(Cl)c4F)[C@H](C)C3)n2)n[nH]1 [Example 81, (2R,4R)-1-(3-chloro-2-fluorobenzyl)-4-((3-fluoro-6-((5-methyl-1H-pyrazol-3-yl)amino)-4-(methylsulfonyl)pyridin-2-yl)methyl)-2-methylpiperidine-4-carboxylic acid]
3 | 523 | 0.88 | Cc1cc(Nc2cncc(C[C@@]3(C(=O)O)CCN(Cc4cccc(Cl)c4F)[C@H](C)C3)n2)n[nH]1 (stereo in doubt) [Example 45, (2R,4R)-1-(3-chloro-2-fluorobenzyl)-2-methyl-4-((6-((5-methyl-1H-pyrazol-3-yl)amino)pyrazin-2-yl)methyl)piperidine-4-carboxylic acid]
4 | 3682 | 2.7 | Cc1cc(Nc2ccc(F)c(C[C@@]3(C(=O)O)CCN([C@@H](C)c4cccc(Cl)c4F)[C@H](C)C3)n2)n[nH]1 [Example 41, (2R,4R)-1-(1-(3-chloro-2-fluorophenyl)ethyl)-4-((3-fluoro-6-((5-methyl-1H-pyrazol-3-yl)amino)pyridin-2-yl)methyl)-2-methylpiperidine-4-carboxylic acid]
5 | 1789 | 3.1 | Cc1cc(Nc2ccc(F)c(C[C@@]3(C(=O)O)CCN(Cc4cccc(C(F)(F)F)c4)[C@H](C)C3)n2)n[nH]1 [Example 21, (2R,4R)-4-((3-fluoro-6-((5-methyl-1H-pyrazol-3-yl)amino)pyridin-2-yl)methyl)-2-methyl-1-(3-(trifluoromethyl)benzyl) piperidine-4-carboxylic acid]
6 | 1499 | 2.9 | Cc1cc(Nc2ncc(F)c(C[C@@]3(C(=O)O)CCN(Cc4cccc(Cl)c4F)[C@H](C)C3)n2)n[nH]1 [Example 26, (2R,4R)-1-(3-chloro-2-fluorobenzyl)-4-((5-fluoro-2-((5-methyl-1H-pyrazol-3-yl)amino)pyrimidin-4-yl)methyl)-2-methylpiperidine-4-carboxylic acid]
7 | 759 | 1.6 | Cc1cc(Nc2cc(C#N)c(F)c(C[C@@]3(C(=O)O)CCN(Cc4cccc(Cl)c4F)[C@H](C)C3)n2)[nH]n1 [Example 67, (2R,4R)-1-(3-chloro-2-fluorobenzyl)-4-((4-cyano-3-fluoro-6-((3-methyl-1H-pyrazol-5-yl)amino)pyridin-2-yl)methyl)-2-methylpiperidine-4-carboxylic acid]
8 | 1755 | 0.55 | Cc1cc(Nc2ccc(F)c(C[C@@]3(C(=O)O)CCN(Cc4cccc(F)c4F)[C@H](C)C3)n2)n[nH]1 [Example 15, (2R,4R)-1-(2,3-difluorobenzyl)-4-((3-fluoro-6-((5-methyl-1H-pyrazol-3-yl)amino)pyridin-2-yl)methyl)-2-methylpiperidine-4-carboxylic acid]
9 | 2833 | 0.22 | Cc1cc(Nc2cc(C)c(F)c(CC3(C(=O)O)CCN(Cc4cccc(Cl)c4F)CC3)n2)n[nH]1 [Example 51, 1-(3-chloro-2-fluorobenzyl)-4-((3-fluoro-4-methyl-6-((5-methyl-1H-pyrazol-3-yl)amino)-pyridin-2-yl)methyl)piper-idine-4-carboxylic acid]
10 | 4026 | 1.4 | Cc1cc(Nc2nc(C[C@@]3(C(=O)O)CCN(Cc4cccc(Cl)c4F)[C@H](C)C3)c(F)c(Cl)c2Cl)n[nH]1 [Example 84, (2R,4R)-1-(3-chloro-2-fluorobenzyl)-4-((4,5-dichloro-3-fluoro-6-((5-methyl-1H-pyrazol-3-yl)amino)pyridin-2-yl)methyl)-2-methylpiperidine-4-carboxylic acid]
11 | 622 | 0.81 | Cc1cc(Nc2ccc(F)c(C[C@@]3(C(=O)O)CCN(Cc4ccc(F)c(Cl)c4F)[C@H](C)C3)n2)n[nH]1 [Example 27, (2R,4R)-1-(3-chloro-2,4-difluorobenzyl)-4-((3-fluoro-6-((5-methyl-1H-pyrazol-3-yl)amino)pyridin-2-yl)methyl)-2-methylpiperidine-4-carboxylic acid]
12 | 2041 | 0.43 | Cc1cc(Nc2cc(C)c(F)c(CC3(C(=O)O)CCN(Cc4cccc(Cl)c4Cl)CC3)n2)n[nH]1 [Example 54]
13 | 613 | 0.91 | Cc1cc(Nc2ccc(F)c(C[C@@]3(C(=O)O)CCN(Cc4cc(Cl)c(F)c(Cl)c4)[C@H](C)C3)n2)n[nH]1 [Example 23, (2R,4R)-1-(3,5-dichloro-4-fluorobenzyl)-4-((3-fluoro-6-((5-methyl-1H-pyrazol-3-yl)amino)pyridin-2-yl)methyl)-2-methylpiperidine-4-carboxylic acid]
14 | 804 | 0.93 | Cc1[nH]nc(Nc2ccc(F)c(CC3(C(=O)O)CCN(Cc4cccc(Cl)c4F)C(C)C3)n2)c1C (stereo not shown) [Example 102, 1-(3-chloro-2-fluorobenzyl)-4-((6-((4,5-dimethyl-1H-pyrazol-3-yl)-amino)-3-fluoropyridin-2-yl)-methyl)-2-methylpiperidine-4-carb-oxylic acid]
15 | 986 | 0.85 | Cc1cc(Nc2ccc(F)c(C[C@@]3(C(=O)O)CCN(C(=O)Cc4cccc(Cl)c4F)[C@H](C)C3)n2)n[nH]1 [Example 38, (2R,4R)-1-(2-(3-chloro-2-fluorophenyl)acetyl)-4-((3-fluoro-6-((5-methyl-1H-pyrazol-3-yl)amino)pyri-din-2-yl)methyl)-2-methyl-piperidine-4-carboxylic acid]
16 | 2560 | 2.4 | Cc1cc(Nc2ccc(F)c(C[C@@]3(C(=O)O)CCN(Cc4c(F)cccc4F)[C@H](C)C3)n2)n[nH]1 [Example 12, (2R,4R)-1-(2,6-difluorobenzyl)-4-((3-fluoro-6-((5-methyl-1H-pyrazol-3-yl)amino)pyridin-2-yl)methyl)-2-methylpiperidine-4-carboxylic acid]
17 | 451 | 1.1 | Cc1cc(Nc2nc(C[C@@]3(C(=O)O)CCN(Cc4cccc(Cl)c4F)[C@H](C)C3)c(F)cc2F)n[nH]1 [Example 91, (2R,4R)-1-(3-chloro-2-fluorobenzyl)-4-((3,5-difluoro-6-((5-methyl-1H-pyrazol-3-yl)amino)pyridin-2-yl)methyl)-2-methylpiperidine-4-carboxylic acid]
18 | 2288 | 1.3 | Cc1cc(Nc2ccc(F)c(CC3(C(=O)O)CCN(Cc4cccc(Cl)c4F)CC3)n2)n[nH]1 [Example 1, 1-(3-chloro-2-fluorobenzyl)-4-((3-fluoro-6-((5-methyl-1H-pyrazol-3-yl)amino)pyridin-2-yl)methyl)piperidine-4-carboxylic acid]
19 | 4393 | 0.74 | Cc1cc(Nc2nc(CC3(C(=O)O)CCN(Cc4cccc(Cl)c4F)CC3)c(F)cc2F)n[nH]1 [Example 92]
20 | 1236 | 2.9 | CCC1CC(Cc2nc(Nc3cc(C)[nH]n3)ccc2F)(C(=O)O)CCN1Cc1cccc(Cl)c1F (stereo not shown) [Example 2, 1-(3-chloro-2-fluorobenzyl)-2-ethyl-4-((3-fluoro-6-((5-methyl-1H-pyrazol-3-yl)amino)pyridin-2-yl)methyl)piperidine-4-carboxylic acid]
21 | 3358 | 0.67 | Cc1cc(Nc2nc(C[C@@]3(C(=O)O)CCN(Cc4cccc(Cl)c4F)[C@H](C)C3)c(F)c(Cl)c2F)n[nH]1 [Example 74]
22 | 979 | 1 | Cc1cc(Nc2ccc(C)c(C[C@@]3(C(=O)O)CCN(Cc4cccc(Cl)c4F)[C@H](C)C3)n2)n[nH]1 [Example 10, (2R,4R)-1-(3-chloro-2-fluorobenzyl)-2-methyl-4-((3-methyl-6-((5-methyl-1H-pyrazol-3-yl)amino)pyridin-2-yl)methyl) piperidine-4-carboxylic acid]
23 | 1285 | 1.3 | Cc1cc(Nc2cc(C)c(F)c(CC3(C(=O)O)CCN(Cc4cccc(F)c4F)CC3)n2)n[nH]1 [Example 52]
